# Paper PMC10828444, “Selective inhibition of overactive warmth-sensitive Ca^2+-permeable TRPV3 channels by antispasmodic agent flopropione for alleviation of skin inflammation” (The Journal of Biological Chemistry, 2023)
# Residue numbers refer to the chain shown, from its start.
# Columns and labels:
# Type in all cases: cell-based
# hTRPA1 = molecular target: T1, hTRPA1 (Homo sapiens, UniProt O75762); assay: Whole-cell patch-clamp of TRPA1 currents activated by AITC in HEK293 cells; conditions: flopropione 100 μM, AITC 300 μM
# T1 construct: expressed in transfected cells; host or cells: HEK293
# Procedure: (§1) HEK293 cells were cultured in Dulbecco’s modified Eagle’s medium (DMEM, Gibco) containing 4.5 g/L D-glucose supplemented with 10% fetal bovine serum based at 37 °C with 5% CO2. For whole-cell patch-clamp recordings, cells were grown in glass coverslips for 24 h before transient transfections with 3000 ng cDNAs of hTRPV3 (gene accession number BC104866.1), hTRPV1 (accession number NM_080704.3), mTRPV2 (accession number NM_011706.2), hTRPV4 (accession number NM_021625.5), hTRPA1 (accession number NM_007332.3) and hTRPM8 (accession number NM_024080.5) into HEK293 cells grown in a 35-mm cell culture dish using Lipofectamine 2000 (Invitrogen). Cells were used 18 ∼ 24 h after transfection. All WT or mutant hTRPV3 plasmids were validated by DNA sequencing.
# (§2) Whole-cell patch clamp recordings of wild-type and mutants were carried out at room temperature using the HEKA EPC10 amplifier powered by PatchMaster software (HEKA) or MultiClamp 700B amplifier driven by Clampex 11.0.3 software. The borosilicate glass pipettes were pulled and fire-polished to 3∼6 MΩ using a DMZ universal electrode puller (Zeitz-Instruments, GmbH). Pipette solution and bath solution both contained (in mM): 130 NaCl, three HEPES, and 0.2 EDTA (pH = 7.4). Cell membrane potential was held at 0 mV, currents were recorded at a voltage ramp from −100 to +100 mV for 500-ms and analyzed at ±80 mV.
# hTRPV4 = molecular target: T2, hTRPV4 (Homo sapiens, UniProt Q9HBA0); assay: Whole-cell patch-clamp of TRPV4 currents activated by GSK1016790A in HEK293 cells; conditions: flopropione 100 μM, GSK1016790A 0.1 μM
# T2 construct: expressed in transfected cells; host or cells: HEK293
# Procedure: as §1, §2
# hTRPV3 I505A mutant = molecular target: T3, hTRPV3 I505A mutant (Homo sapiens, UniProt Q8NET8, I505A); assay: Whole-cell recordings of TRPV3 I505A mutant; conditions: 100 μM flopropione, 2-APB
# T3 construct: expressed in transfected cells; host or cells: HEK293
# T3 sequence (Q8NET8 1-790 I505A): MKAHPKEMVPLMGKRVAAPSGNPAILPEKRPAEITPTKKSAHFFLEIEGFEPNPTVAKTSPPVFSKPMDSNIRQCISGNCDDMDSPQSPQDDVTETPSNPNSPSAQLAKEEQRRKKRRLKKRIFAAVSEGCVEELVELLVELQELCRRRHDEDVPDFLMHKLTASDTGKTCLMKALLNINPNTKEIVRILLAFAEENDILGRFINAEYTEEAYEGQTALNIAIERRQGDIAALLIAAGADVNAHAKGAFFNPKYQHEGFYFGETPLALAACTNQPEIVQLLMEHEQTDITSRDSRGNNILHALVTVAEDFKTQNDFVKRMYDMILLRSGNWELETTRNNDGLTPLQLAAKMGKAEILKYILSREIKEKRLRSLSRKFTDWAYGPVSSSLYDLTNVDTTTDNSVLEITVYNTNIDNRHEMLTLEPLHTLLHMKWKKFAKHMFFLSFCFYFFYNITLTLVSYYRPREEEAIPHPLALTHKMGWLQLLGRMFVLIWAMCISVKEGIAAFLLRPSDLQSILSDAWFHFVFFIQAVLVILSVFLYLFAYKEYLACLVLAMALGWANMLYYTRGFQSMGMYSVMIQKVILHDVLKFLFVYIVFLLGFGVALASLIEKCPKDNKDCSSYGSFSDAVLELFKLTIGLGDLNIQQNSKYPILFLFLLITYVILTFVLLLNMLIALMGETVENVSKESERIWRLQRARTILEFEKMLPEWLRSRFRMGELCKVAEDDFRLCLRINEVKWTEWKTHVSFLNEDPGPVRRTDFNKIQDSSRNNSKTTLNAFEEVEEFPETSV
# Procedure: as §1, §2
# hTRPM8 = molecular target: T4, hTRPM8 (Homo sapiens, UniProt Q7Z2W7); assay: Whole-cell patch-clamp of TRPM8 currents elicited by menthol in HEK293 cells; conditions: flopropione 100 μM, menthol 500 μM
# T4 construct: expressed in transfected cells; host or cells: HEK293
# Procedure: as §1, §2
# TRPV3-F666A mutant = molecular target: T5, TRPV3-F666A mutant (Homo sapiens, UniProt Q8NET8, F666A); assay: Whole-cell and single-channel recordings of TRPV3-F666A mutant; conditions: 100 μM flopropione whole-cell (50 μM 2-APB); 50 μM single-channel (30 μM 2-APB)
# T5 construct: expressed in transfected cells; host or cells: HEK293
# T5 sequence (Q8NET8 1-790 F666A): T3 sequence (Q8NET8 1-790 I505A) with A505I, F666A
# Procedure: as §1
# as §2, with “mV. […]” for “mV.”
# T2 sequence (Q9HBA0 whole entry): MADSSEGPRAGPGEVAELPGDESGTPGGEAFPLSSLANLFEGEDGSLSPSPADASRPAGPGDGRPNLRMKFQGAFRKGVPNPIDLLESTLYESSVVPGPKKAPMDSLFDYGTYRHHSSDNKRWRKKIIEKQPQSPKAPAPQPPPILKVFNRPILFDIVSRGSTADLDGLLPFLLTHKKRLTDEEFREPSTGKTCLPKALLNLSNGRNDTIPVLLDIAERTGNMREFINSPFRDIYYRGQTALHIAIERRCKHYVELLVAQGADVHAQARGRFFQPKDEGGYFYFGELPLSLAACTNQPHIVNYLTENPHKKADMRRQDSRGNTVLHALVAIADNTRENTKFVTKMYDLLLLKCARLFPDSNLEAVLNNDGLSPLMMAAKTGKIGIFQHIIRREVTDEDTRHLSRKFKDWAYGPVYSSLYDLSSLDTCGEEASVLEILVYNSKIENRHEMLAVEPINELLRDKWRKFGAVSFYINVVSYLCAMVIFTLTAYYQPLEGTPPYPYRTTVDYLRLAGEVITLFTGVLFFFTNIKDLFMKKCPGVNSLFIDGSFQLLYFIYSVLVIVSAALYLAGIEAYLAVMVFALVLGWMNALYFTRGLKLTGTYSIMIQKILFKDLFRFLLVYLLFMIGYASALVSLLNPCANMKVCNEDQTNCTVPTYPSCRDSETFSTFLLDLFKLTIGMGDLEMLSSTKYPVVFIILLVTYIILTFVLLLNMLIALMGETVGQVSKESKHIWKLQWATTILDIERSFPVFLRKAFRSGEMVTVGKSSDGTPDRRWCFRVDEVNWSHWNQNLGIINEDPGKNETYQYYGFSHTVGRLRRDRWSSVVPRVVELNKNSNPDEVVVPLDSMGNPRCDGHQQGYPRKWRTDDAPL
# T1 sequence (O75762 whole entry): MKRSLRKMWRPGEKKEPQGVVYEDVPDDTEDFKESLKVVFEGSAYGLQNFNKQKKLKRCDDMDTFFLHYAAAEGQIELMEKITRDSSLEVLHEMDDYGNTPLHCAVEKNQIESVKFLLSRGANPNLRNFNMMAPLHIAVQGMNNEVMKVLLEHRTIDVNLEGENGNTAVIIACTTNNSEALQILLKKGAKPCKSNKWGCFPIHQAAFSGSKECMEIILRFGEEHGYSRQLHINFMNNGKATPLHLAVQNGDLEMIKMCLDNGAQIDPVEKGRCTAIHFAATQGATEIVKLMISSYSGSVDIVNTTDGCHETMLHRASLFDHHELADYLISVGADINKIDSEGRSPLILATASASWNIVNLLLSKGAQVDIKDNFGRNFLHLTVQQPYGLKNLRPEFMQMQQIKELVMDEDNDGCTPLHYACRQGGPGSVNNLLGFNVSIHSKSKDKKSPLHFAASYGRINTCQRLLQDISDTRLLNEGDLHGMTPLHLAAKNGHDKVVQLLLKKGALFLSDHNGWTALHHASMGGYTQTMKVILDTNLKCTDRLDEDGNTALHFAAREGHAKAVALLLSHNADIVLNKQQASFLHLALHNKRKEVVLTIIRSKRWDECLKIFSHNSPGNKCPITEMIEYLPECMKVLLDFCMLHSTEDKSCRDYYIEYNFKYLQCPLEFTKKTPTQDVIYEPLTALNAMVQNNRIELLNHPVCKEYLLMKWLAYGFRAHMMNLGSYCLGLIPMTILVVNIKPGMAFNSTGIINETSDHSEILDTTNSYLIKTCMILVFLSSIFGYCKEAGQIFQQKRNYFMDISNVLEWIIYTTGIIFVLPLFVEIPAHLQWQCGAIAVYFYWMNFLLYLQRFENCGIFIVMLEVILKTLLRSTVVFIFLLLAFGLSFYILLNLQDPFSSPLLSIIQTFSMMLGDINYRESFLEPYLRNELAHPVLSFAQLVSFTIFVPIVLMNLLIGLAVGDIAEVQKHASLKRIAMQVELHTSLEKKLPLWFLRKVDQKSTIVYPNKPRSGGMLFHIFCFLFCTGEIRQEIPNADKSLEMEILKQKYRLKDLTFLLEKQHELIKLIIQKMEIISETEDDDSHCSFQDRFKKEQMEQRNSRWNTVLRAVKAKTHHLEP
# T4 sequence (Q7Z2W7 whole entry): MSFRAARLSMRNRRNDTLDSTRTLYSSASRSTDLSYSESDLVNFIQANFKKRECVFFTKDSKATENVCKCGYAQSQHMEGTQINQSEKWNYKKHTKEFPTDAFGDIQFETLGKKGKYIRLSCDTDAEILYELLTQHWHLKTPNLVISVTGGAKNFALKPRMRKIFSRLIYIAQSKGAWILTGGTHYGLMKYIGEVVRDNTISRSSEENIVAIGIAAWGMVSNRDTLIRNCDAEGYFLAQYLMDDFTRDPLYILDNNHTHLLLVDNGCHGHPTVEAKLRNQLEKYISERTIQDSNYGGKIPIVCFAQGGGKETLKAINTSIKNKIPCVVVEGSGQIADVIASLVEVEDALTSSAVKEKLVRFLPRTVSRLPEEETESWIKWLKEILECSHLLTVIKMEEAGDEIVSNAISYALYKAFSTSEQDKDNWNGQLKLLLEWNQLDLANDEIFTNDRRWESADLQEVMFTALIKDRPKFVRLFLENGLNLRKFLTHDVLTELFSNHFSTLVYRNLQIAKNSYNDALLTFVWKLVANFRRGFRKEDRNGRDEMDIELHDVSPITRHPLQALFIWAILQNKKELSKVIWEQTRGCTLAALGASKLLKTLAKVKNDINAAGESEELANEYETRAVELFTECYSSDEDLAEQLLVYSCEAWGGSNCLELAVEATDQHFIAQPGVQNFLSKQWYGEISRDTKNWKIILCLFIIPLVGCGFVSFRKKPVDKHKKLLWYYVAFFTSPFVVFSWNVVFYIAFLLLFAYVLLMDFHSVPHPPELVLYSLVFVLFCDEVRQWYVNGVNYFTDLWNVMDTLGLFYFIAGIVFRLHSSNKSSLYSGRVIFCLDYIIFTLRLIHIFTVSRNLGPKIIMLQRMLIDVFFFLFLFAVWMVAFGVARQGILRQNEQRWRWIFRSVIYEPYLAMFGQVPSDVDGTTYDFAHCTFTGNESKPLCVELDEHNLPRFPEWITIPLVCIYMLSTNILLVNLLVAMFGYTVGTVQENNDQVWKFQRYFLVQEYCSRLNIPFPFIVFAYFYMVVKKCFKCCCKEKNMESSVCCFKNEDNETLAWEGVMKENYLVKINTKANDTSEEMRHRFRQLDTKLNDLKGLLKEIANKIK
structure (smiles),measurement,setting,value
CCC(=O)c1c(O)cc(O)cc1O [flopropione],effect on TRPA1 currents,hTRPA1,no effect
same,effect on TRPV4 currents,hTRPV4,no effect
same,effect of I505 mutation on inhibition by flopropione,hTRPV3 I505A mutant,partially reduced TRPV3 inhibition
same,effect on TRPM8 currents,hTRPM8,no effect
same,effect of F666A mutation on flopropione-mediated inhibition,TRPV3-F666A mutant,no effect
